Blank lines part the entries; values can stand above or below the compound they belong to. The source made the active and inactive calls. No cut-off for these calls is given here.
What was measured:
HepG2 [1] = assay: Antioxidant activity in human HepG2 cells assessed as decrease in fluorescence level after 2.5 hrs measured every 5 mins for 1 hr by DCFH-DA staining based fluorescence assay; format: functional, cell-based
HepG2 [2] = assay: Antioxidant activity in human HepG2 cells assessed as decrease in fluorescence level by measuring ratio of micromol of quercetin to 100 umol of compound after 2.5 hrs measured every 5 mins for 1 hr by DCFH-DA staining based fluorescence assay; format: functional; design: scale not given: the % may be the effect or the level left
A549 [3] = assay: Antiproliferative activity against human A549 cells assessed as cell survival at 100 ug/ml after 48 hrs by MTT assay relative to control; format: functional; details: A549, 48 h, read-out: Survival
HeLa [4] = assay: Antiproliferative activity against human HeLa cells assessed as reduction in cell survival after 48 hrs by MTT assay; format: functional, cell-based
MCF7 [5] = assay: Induction of apoptosis in human MCF7 cells assessed as mitochondrial membrane potential loss at 100 ug/ml after 48 hrs by JC-1 staining based fluorescence microscopic analysis; format: functional, cell-based
Erythrocyte [6] = assay: Cytoprotective activity in human erythrocytes assessed as inhibition of AAPH-induced oxidative hemolysis preincubated for 30 mins followed by AAPH induction measured after 2 hrs by spectrophotometric analysis; format: functional, cell-based
MCF7 [7] = assay: Induction of apoptosis in human MCF7 cells assessed as apoptotic bodies at 500 ug/ml after 48 hrs by scanning electron microscopic analysis; format: functional, cell-based
[8] = target: Superoxide dismutase [Cu-Zn] (Homo sapiens) (UniProt P00441); assay: Induction of superoxide dismutase activity in human erythrocytes at 100 ug/ml preincubated followed by AAPH addition measured after 2 hrs; format: cell-based
Superoxide dismutase [Cu-Zn] (Homo sapiens), sequence (P00441 whole entry): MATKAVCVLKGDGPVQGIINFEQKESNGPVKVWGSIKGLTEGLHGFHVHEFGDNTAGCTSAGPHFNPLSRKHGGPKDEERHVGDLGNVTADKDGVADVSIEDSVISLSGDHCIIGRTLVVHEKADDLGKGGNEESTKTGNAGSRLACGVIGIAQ

MCF7 [9] = assay: Antiproliferative activity against human MCF7 cells assessed as cell survival at 100 ug/ml after 48 hrs by MTT assay relative to control; format: functional; details: MCF7, 48 h, read-out: Survival
MCF7 [10] = assay: Induction of apoptosis in human MCF7 cells assessed as chromatin condensation at 500 ug/ml after 12 hrs by scanning electron microscopic analysis; format: functional, cell-based
Catalase (Homo sapiens) = target: T1, Catalase (Homo sapiens) (UniProt P04040); assay: Reduction of catalase activity in human erythrocytes at 100 ug/ml preincubated followed by AAPH addition measured after 2 hrs; format: cell-based; design: scale not given: the % may be the effect or the level left
T1 sequence (whole entry): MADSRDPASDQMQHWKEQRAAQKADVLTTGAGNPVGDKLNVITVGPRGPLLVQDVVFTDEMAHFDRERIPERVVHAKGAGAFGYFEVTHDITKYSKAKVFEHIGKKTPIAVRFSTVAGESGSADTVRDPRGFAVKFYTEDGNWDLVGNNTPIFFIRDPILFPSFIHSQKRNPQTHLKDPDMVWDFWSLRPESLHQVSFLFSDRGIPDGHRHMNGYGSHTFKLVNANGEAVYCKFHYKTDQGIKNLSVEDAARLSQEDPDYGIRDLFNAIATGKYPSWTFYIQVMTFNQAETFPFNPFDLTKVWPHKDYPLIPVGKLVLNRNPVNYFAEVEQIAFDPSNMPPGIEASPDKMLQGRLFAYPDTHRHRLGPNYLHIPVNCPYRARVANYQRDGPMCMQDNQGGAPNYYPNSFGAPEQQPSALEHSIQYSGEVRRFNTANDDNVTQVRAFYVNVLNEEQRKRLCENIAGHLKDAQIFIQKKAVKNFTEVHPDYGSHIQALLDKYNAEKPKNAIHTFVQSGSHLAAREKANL

A549 [11] = assay: Antiproliferative activity against human A549 cells assessed as reduction in cell survival after 48 hrs by MTT assay; format: functional, cell-based
HeLa [12] = assay: Antiproliferative activity against human HeLa cells assessed as cell survival at 100 ug/ml after 48 hrs by MTT assay relative to control; format: functional; details: read-out: Survival
MCF7 [13] = assay: Induction of apoptosis in human MCF7 cells assessed as cell shrinkage at 500 ug/ml after 24 hrs by scanning electron microscopic analysis; format: functional, cell-based
MCF7 [14] = assay: Induction of apoptosis in human MCF7 cells assessed as morphological deformity at 500 ug/ml after 48 hrs by scanning electron microscopic analysis; format: functional, cell-based
Erythrocyte [15] = assay: Cytoprotective activity in human erythrocytes assessed as inhibition of AAPH-induced oxidative hemolysis at 100 ug/ml preincubated for 30 mins followed by AAPH induction measured after 2 hrs by spectrophotometric analysis relative to control; format: functional
MCF7 [16] = assay: Induction of apoptosis in human MCF7 cells assessed as cytoplasm overflow at 500 ug/ml after 24 hrs by scanning electron microscopic analysis; format: functional, cell-based
MCF7 [17] = assay: Induction of apoptosis in human MCF7 cells assessed as nuclear morphological deformity at 500 ug/ml after 12 hrs by scanning electron microscopic analysis; format: functional, cell-based
MCF7 [18] = assay: Induction of apoptosis in human MCF7 cells assessed as plasma membrane blebbing at 500 ug/ml after 48 hrs by scanning electron microscopic analysis; format: functional, cell-based
Erythrocyte [19] = assay: Inhibition of lipid peroxidation in human erythrocytes assessed as reduction in AAPH-induced malondialdehyde formation at 100 ug/ml preincubated for 20 mins followed by AAPH addition measured after 2 hrs by […] relative to untreated control; format: functional
SGC-7901 = assay: Antiproliferative activity against human SGC7901 cells assessed as reduction in cell survival after 48 hrs by MTT assay; format: functional, cell-based
MCF7 [20] = assay: Induction of apoptosis in human MCF7 cells assessed as chromatin hypercondensation at 25 to 100 ug/ml after 48 hrs by Hoechst 33258 staining based fluorescence microscopic analysis; format: functional, cell-based
MCF7 [21] = assay: Induction of apoptosis in human MCF7 cells assessed as morphological changes at 500 ug/ml by scanning electron microscopic analysis; format: functional, cell-based; details: TDE = time-dependent effect
Erythrocyte [22] = assay: Inhibition of AAPH-induced oxidative hemolysis in human erythrocytes assessed as smooth and round surface at 100 ug/ml preincubated for 20 mins followed by AAPH addition measured after 2 hrs by scanning electron microscopic analysis; format: functional, cell-based
HepG2 [23] = assay: Antioxidant activity in human HepG2 cells assessed as decrease in AAPH-induced ROS level at 100 ug/ml preincubated for 2 hrs followed by AAPH addition by DCFH-DA staining based microplate fluorometric analysis relative to control; format: functional; design: scale not given: the % may be the effect or the level left
[24] = Antiproliferative activity against human SGC7901 cells assessed as cell survival at 100 ug/ml after 48 hrs by MTT assay relative to control; format: functional; details: SGC-7901, 48 h, read-out: Survival
MCF7 [25] = assay: Antiproliferative activity against human MCF7 cells assessed as reduction in cell survival after 48 hrs by MTT assay; format: functional, cell-based
Homo sapiens = organism: Homo sapiens; assay: Induction of glutathione peroxidase activity in human erythrocytes at 100 ug/ml preincubated followed by AAPH addition measured after 2 hrs; format: cell-based

EC50 (HepG2 [1]): 7.98 µmol
Compound: COc1ccc(-c2cc(=O)c3c(O)cc(O)cc3o2)cc1O [DIOSMETIN]
Activity (HepG2 [2]): 58%

Compound: O=C(O[C@@H]1Cc2c(O)cc(O)cc2O[C@@H]1c1cc(O)c(O)c(O)c1)c1cc(O)c(O)c(O)c1 [EPIGALOCATECHIN GALLATE]
Activity (HepG2 [2]): 33.1%

Compound: O=c1c(O)c(-c2ccc(O)cc2)oc2cc(O)cc(O)c12 [KAEMPFEROL]
viability at 100 µg/mL (A549 [3]): 60.2%
Activity (HeLa [4]): Dose-dependent effect
Activity (HepG2 [1]): Dose-dependent effect
EC50 (HepG2 [1]): 7.74 µmol
Activity (MCF7 [5]): Active
inhibition (Erythrocyte [6]): Dose-dependent effect
Activity (MCF7 [7]): Active
Activity [8]: inactive
Activity (HepG2 [2]): 59.8%
viability at 100 µg/mL (MCF7 [9]): 47.9%
Activity (MCF7 [10]): Active
Activity (Catalase (Homo sapiens)): < 95.5%
Activity (A549 [11]): Dose-dependent effect
viability at 100 µg/mL (HeLa [12]): 57.5%
Activity (MCF7 [13]): Active
Activity (MCF7 [14]): Active
inhibition at 100 µg/mL (Erythrocyte [15]): 87.4%
Activity (MCF7 [16]): Active
Activity (MCF7 [17]): Active
Activity (MCF7 [18]): Active
inhibition at 100 µg/mL (Erythrocyte [19]): 36.5%
Activity (SGC-7901): Dose-dependent effect
Activity (MCF7 [20]): Active
Activity (MCF7 [21]): tde
inhibition (Erythrocyte [22]): Active
Activity (HepG2 [23]): 88.25%
viability at 100 µg/mL [24]: 59.2%
Activity (MCF7 [25]): Dose-dependent effect
Activity (Homo sapiens): inactive

Compound: O=c1cc(-c2ccc(O)c(O)c2)oc2cc(O)cc(O)c12 [LUTEOLIN]
Activity (HepG2 [2]): 32.3%

Compound: O=c1c(O)c(-c2cc(O)c(O)c(O)c2)oc2cc(O)cc(O)c12 [MYRICETIN]
Activity (HepG2 [2]): 36.8%

Compound: O=c1c(O)c(-c2ccc(O)c(O)c2)oc2cc(O)cc(O)c12 [QUERCETIN]
EC50 (HepG2 [1]): 4.63 µmol

Reference: ChEMBL document CHEMBL3779891 (Eur J Med Chem, 2016)
